The source of these data is US5981517A, “Androstene derivatives” (priority 1997, dated 1999).

Assay [1] relates to forearm of a human volunteer. Briefly: Human vasoconstriction test. The format is in vivo. Particulars: 10 mM. As to the method:
Test compounds (10 mM) were dissolved in ethanol/propylene glycol (9/1) solution, and 50 μL of the mixtures were applied to circular patches, 8 mm in diameter. After ethanol evaporation, the patches were applied to the forearm of a human volunteer, and covered with a water impervious film for 3 hours. The intensity of vasoconstriction was judged 1, 8, 17 and 24 hours after the patches were removed.
The grading scale for the vasoconstriction activity was as follows: 0, normal skin; 1, slight pallor of indistinct outline; 2, pallor with at least two corners outlined; 3, even pallor with a clear outline of the application sites; 4, very intense pallor.

Assay [2] has as its system forearms of a human volunteer. Briefly: Further human vasoconstriction testing, Method 1. In kind it is in vivo. Particulars: 10 mM. As to the method:
The mixtures, in 50 μL amounts, were applied to circular patches (8 mm diameter). After evaporation of ethanol, the patches were applied to the forearms of a human volunteer, and covered with a water impervious film for 3 hr. The intensity of vasoconstriction (scale 0-4) was judged at various time intervals after removal of the patches. The grading scale was as follows: 0, normal skin; 1, slight pallor of indistinct outline; 2, pallor with at least two corners outlined; 3, even pallor with a clear outline of the application sites; 4, very intense pallor. The skin tests (2-4 tests on each compound) were performed on the same person.

The target of assay [3] is T1, rat lung glucocorticoid receptor (Rattus norvegicus, UniProt P06536).
T1 construct: Immediately after resection of the lungs, the tissue was frozen in ice; The cytosol was prepared; from tissue; host or cells: lung cytosol of adrenalectomized male Sprague-Dawley rats
T1 sequence (P06536 1-795): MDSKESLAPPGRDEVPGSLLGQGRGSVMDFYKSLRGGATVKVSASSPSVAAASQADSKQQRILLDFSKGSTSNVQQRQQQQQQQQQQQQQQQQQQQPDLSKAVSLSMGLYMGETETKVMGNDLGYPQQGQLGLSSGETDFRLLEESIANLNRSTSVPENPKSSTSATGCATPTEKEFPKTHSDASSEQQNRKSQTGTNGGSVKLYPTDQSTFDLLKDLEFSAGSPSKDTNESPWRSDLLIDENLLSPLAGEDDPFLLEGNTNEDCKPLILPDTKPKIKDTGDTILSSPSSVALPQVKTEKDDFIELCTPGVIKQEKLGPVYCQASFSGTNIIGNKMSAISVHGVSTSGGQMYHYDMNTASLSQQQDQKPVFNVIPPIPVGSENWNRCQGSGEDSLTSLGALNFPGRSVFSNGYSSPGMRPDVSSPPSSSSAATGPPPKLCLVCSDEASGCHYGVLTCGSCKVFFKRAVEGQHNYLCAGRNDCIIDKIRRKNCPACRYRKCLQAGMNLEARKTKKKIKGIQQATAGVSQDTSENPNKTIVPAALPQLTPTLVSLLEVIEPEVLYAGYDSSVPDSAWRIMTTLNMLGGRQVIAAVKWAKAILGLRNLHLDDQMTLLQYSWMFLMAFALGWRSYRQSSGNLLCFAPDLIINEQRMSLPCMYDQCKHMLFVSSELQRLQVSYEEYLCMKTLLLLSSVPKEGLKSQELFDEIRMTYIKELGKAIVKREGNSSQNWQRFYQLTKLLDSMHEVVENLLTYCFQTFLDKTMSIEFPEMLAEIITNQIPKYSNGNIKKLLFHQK
Briefly: Receptor binding studies ([3H]triamcinolone acetonide displacement). The note with it: for RBA: further receptor binding studies (Table X), dexamethasone = 100, * mean ± SE of 3-5 results; for Relative binding affinity (RBA): with respect to dexamethasone (RBA = 100). As to the method:
Male Sprague-Dawley rats, each weighing 150 to 200 g, were used 6 days after adrenalectomy. Rats were sacrificed by decapitation. Immediately after resection of the lungs, the tissue was frozen in ice. […] Portions (5 ml) of the cytosol were frozen in liquid nitrogen and stored at -80° C.
The cytosol was thawed in a water bath and diluted with 1 part of incubation buffer containing a 15 mM concentration of diisopropyl fluorophosphate. […] After a 2 hour incubation period at room temperature (24° C.), the unbound steroid was removed by addition of a 2% suspension of activated charcoal in incubation buffer (400 μL). The mixture was incubated for 5 minutes at room temperature and then was centrifuged at about 10,000 g for 3 minutes in the microcentrifuge. The radioactivity (cpm) in the supernatant (400 μL) was determined by liquid scintillation counting.
The data is fitted to the following logistic function:
B=T-T * C^N /(C^N +IC50^N)+NS,
where B=CPM in the presence of competitor, T=CPM in the absence of competitor, C=competitor concentration, N=Hill slope factor, and NS=cpm under non-specific binding conditions.
For the representative compound of the invention B, receptor binding affinity was investigated with and without Δ^1 -cortienic acid in the incubation solution to study the effect of Δ^1 -cortienic acid on the receptor binding.
Further studies to evaluate the relative receptor binding affinities of compounds of the invention, other compounds of formula (VII) hereinabove and well-known anti-inflammatory steroids were undertaken, using the methods described in the RECEPTOR BINDING STUDIES set forth above. […] For comparison purposes, the following compounds having formula (VII) above were also tested: […]

Assay [4] relates to forearm of a human volunteer. Put plainly: Further human vasoconstriction testing, Method 2. The format is in vivo. Details: key: +: "positive" (pallor could be observed); -: "negative" (pallor could not be detected). As to the method: The mixtures, in 20 μL amounts, were applied to circular patches (1/4 inch diameter). The patches were applied to the forearm of a human volunteer, and covered with a water impervious film for 3 hr. Vasoconstriction activity was judged by the appearance of pallor at various time points after the patches were removed. Tests were performed on the same person and the results were obtained from 2-4 observations.
In TABLE XIV above, "-" means a negative result was obtained. In other tables herein, "-" means not tested.
In TABLE XIV above, the results of a simpler method of judging vasoconstriction activity was used in which only "positive" (pallor could be observed) or "negative" (pallor could not be detected) results were recorded.

Setting [5] is: rat lung cytosol, 10 nM [3H]triamcinolone acetonide, with Δ1-cortienic acid, 2 h, 24° C., read-out: IC50.

Read-outs that look alike come from different tables or passages of the source. Some results are limits rather than exact numbers.

One may read the IC50 as the concentration that inhibits the measured activity by half.

Consider `C[C@@H]1C[C@H]2[C@@H]3CCC4=CC(=O)C=C[C@]4(C)[C@@]3(F)[C@@H](O)C[C@]2(C)[C@@]1(O)C(=O)CO` [Dexamethasone, reference compound], for which the Vasoconstriction activity is given as 0 in assay [1] (1 hour after patch removal); 1 in assay [1] (8 hours after patch removal); 1 in assay [1] (17 hours after patch removal); 1 in assay [1] (24 hours after patch removal); 1 in assay [2] (3 Hours); 1 in assay [2] (20 Hours).
`CC(=O)[C@@]1(O)CC[C@H]2[C@@H]3C[C@H](C)C4=CC(=O)C=C[C@]4(C)[C@@]3(F)[C@@H](O)C[C@@]21C` [Fluorometholone, reference compound]: the RBA in assay [3] is 136 ± 5.
In the case of `CCOC(=O)[C@@]1(O)CC[C@H]2[C@@H]3CCC4=CC(=O)C=C[C@]4(C)[C@H]3[C@@H](O)C[C@@]21C` [F], the IC50 in assay [3] (setting [5]) is over 2000 nM. In addition, the “Relative binding affinity (RBA)” value in assay [3] (with Δ1-cortienic acid) is on record as under 1.
As for `C[C@@H]1C[C@H]2[C@@H]3CCC4=CC(=O)C=C[C@]4(C)[C@@]3(F)[C@@H](O)C[C@]2(C)[C@@]1(OC(=O)C(Cl)Cl)C(=O)OCCl` [K, chloromethyl 17α-dichloroacetoxy-9α-fluoro-11β-hydroxy-16α-methylandrosta-1,4-dien-3-one-17β-carboxylate], the Vasoconstriction activity entry is recorded as “-” in assay [4] (4 Hours, 0.01 mM); “-” in assay [4] (4 Hours, 0.05 mM); “-” in assay [4] (4 Hours, 0.1 mM); “-” in assay [4] (4 Hours, 0.5 mM); “+” in assay [4] (4 Hours, 1 mM); “+” in assay [4] (4 Hours, 5 mM). The Vasoconstriction activity entry in assay [4] (8 Hours, 0.01 mM) is on record as “-”; in assay [4] (8 Hours, 0.05 mM), “-”; in assay [4] (8 Hours, 0.1 mM) it was “+”; in assay [4] (8 Hours, 0.5 mM) it was “+”; in assay [4] (8 Hours, 1 mM), “+”; in assay [4] (8 Hours, 5 mM), “+”. For the same compound, the Vasoconstriction activity entry in assay [4] (10-22 hours, 0.01 mM) is on record as “-”; in assay [4] (10-22 hours, 0.05 mM), “-”; in assay [4] (10-22 hours, 0.1 mM), “-”; in assay [4] (10-22 hours, 0.5 mM), “+”; in assay [4] (10-22 hours, 1 mM), “+”; in assay [4] (10-22 hours, 5 mM), “+”. Also, the Vasoconstriction activity result in assay [4] (24 Hours, 0.01 mM) is “-”; in assay [4] (24 Hours, 0.05 mM), “-”; in assay [4] (24 Hours, 0.1 mM), “-”; in assay [4] (24 Hours, 0.5 mM) it was “+”; in assay [4] (24 Hours, 1 mM), “+”; in assay [4] (24 Hours, 5 mM) it was “+”.
On to `COC(=O)[C@@]1(O)CC[C@H]2[C@@H]3CCC4=CC(=O)C=C[C@]4(C)[C@H]3[C@@H](O)C[C@@]21C` [E], for which, in assay [3], the IC50 was over 2000 nM. Moreover, the “Relative binding affinity (RBA)” value in assay [3] (with Δ1-cortienic acid) is under 1.
Take `C[C@]12C=CC(=O)C=C1CC[C@@H]1[C@@H]2[C@@H](O)C[C@@]2(C)[C@H]1CC[C@]2(OC(=O)C(Cl)Cl)C(=O)O` [H, 17α-dichloroacetoxy-11β-hydroxyandrosta-1,4-dien-3-one-17β-carboxylic acid]: in assay [3] (setting [5]), the IC50 is over 2000 nM. For the same compound, in assay [3] (with Δ1-cortienic acid), the “Relative binding affinity (RBA)” value is reported as under 2.
In assay [3], `CC1(C)O[C@@H]2C[C@H]3[C@@H]4CCC5=CC(=O)C=C[C@]5(C)[C@@]4(F)[C@@H](O)C[C@]3(C)[C@]2(C(=O)CO)O1` [Triamcinolone acetonide, reference compound] had an IC50 of 13 nM and an RBA of 630. Moreover, in assay [3] (with Δ1-cortienic acid), the “Relative binding affinity (RBA)” value was found to be 628.
On to `COC(=O)[C@@]1(OC(=O)CCl)[C@H](C)C[C@H]2[C@@H]3CCC4=CC(=O)C=C[C@]4(C)[C@@]3(F)[C@@H](O)C[C@@]21C` [S], for which the Vasoconstriction activity entry in assay [4] (4 Hours, 0.01 mM) was “-”; in assay [4] (4 Hours, 0.05 mM) it was “-”; in assay [4] (4 Hours, 0.1 mM) it was “-”; in assay [4] (4 Hours, 0.5 mM), “-”; in assay [4] (4 Hours, 1 mM), “-”; in assay [4] (4 Hours, 5 mM), “-”.
As to `CCOC(=O)[C@@]1(OC(=O)CCl)[C@H](C)C[C@H]2[C@@H]3CCC4=CC(=O)C=C[C@]4(C)[C@@]3(F)[C@@H](O)C[C@@]21C` [T], the Vasoconstriction activity result was “-” in assay [4] (4 Hours, 0.01 mM); “-” in assay [4] (4 Hours, 0.05 mM); “-” in assay [4] (4 Hours, 0.1 mM); “-” in assay [4] (4 Hours, 0.5 mM); “-” in assay [4] (4 Hours, 1 mM); “-” in assay [4] (4 Hours, 5 mM).
For `CC(C)OC(=O)[C@@]1(O)CC[C@H]2[C@@H]3CCC4=CC(=O)C=C[C@]4(C)[C@H]3[C@@H](O)C[C@@]21C` [G], the IC50 in assay [3] (setting [5]) was over 2000 nM. Moreover, the “Relative binding affinity (RBA)” value in assay [3] (with Δ1-cortienic acid) was under 1.
